Laboratory results reported in patent publication US7943628B2, “Pyrimidine derivatives” (Pfizer Limited, priority 2005, dated 2011).
Counter-ions that a name gives are not always drawn.

Target: T1, histamine H4 receptor (Homo sapiens, UniProt Q9H3N8)
T1 construct: expressed in transfected cells; host or cells: CHO cells
Test: H4 binding, method 1 ([3H]-histamine filtration binding on CHO cell membranes)
Conditions: H4 binding, method 1; Ki calculated from IC50 (Cheng-Prussoff)
Experimental: Cell pellets from CHO cells expressing the histamine H4 receptor were homogenised in ice-cold 50 mM Tris-HCl/0.5 mM CaCl2 buffer containing a protease inhibitor cocktail (Roche®, United Kingdom) using a ground glass homogeniser. Homogenates were centrifuged at 48000 g for 30 min at 4° C. The membrane pellet was resuspended in fresh buffer and the centrifugation step was repeated as described above. The membrane pellet was resuspended in 50 mM Tris-HCl in the same volume as the original cell pellet. Aliquots of membrane preparations were stored at −80° C. and were used for [^3H]-Histamine binding experiments.
Cell membranes (20-35 μg/well) were incubated for 90 minutes shaking at room temperature with 3 nM [2,5-^3H]Histamine dihydrochloride (30-60 Ci/mmol) in 50 mM Tris-HCl (pH 7.4), with or without competing H4 ligands. The reaction was terminated by rapid filtration through 0.5% polyethylenimine-soaked Unifilter GF/B plates (Packard) followed by three washes with 1 ml ice-cold 50 mM Tris-HCl. Filters were dried for 45 min at 45° C. and bound radiolabel was determined using scintillation counting techniques. Non-specific binding was defined with 10 μM JNJ7777120.

T1 sequence (Q9H3N8 whole entry): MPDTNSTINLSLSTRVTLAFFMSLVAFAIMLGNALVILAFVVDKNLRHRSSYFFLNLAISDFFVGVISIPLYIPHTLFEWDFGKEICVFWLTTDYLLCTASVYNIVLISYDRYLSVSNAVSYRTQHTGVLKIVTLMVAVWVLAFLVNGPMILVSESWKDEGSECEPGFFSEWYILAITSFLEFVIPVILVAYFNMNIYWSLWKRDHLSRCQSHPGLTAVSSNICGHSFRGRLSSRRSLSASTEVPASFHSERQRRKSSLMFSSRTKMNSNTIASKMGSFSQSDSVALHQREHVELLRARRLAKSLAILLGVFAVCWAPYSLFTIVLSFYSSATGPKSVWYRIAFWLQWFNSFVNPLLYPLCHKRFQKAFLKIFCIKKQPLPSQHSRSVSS

`CN[C@@H]1CCN(c2cc(NC3(C)CC3)nc(N)n2)C1` [Example 149, 6-[(3R)-3-(Methylamino)pyrrolidin-1-yl]-N^4-(1-methylcyclopropyl)pyrimidine-2,4-diamine] and `CN[C@@H]1CCN(c2cc(NCC3CC3)nc(N)n2)C1` [Example 167, N^4-(Cyclopropylmethyl)-6-[(3R)-3-(methylamino)pyrrolidin-1-yl]pyrimidine-2,4-diamine] are within 1.5-fold of each other in Ki: 5.2 nM for the first, 6.3 nM for the second.

`CC[C@H](C)Nc1cc(N2CC[C@@H](NC)C2)nc(N)n1` [Example 151, 6-[(3R)-3-(Methylamino)pyrrolidin-1-yl]-N^4-[(1S)-1-methylpropyl]pyrimidine-2,4-diamine] and `CC[C@@H](C)Nc1cc(N2CC[C@@H](NC)C2)nc(N)n1` [Example 152, 6-[(3R)-3-(Methylamino)pyrrolidin-1-yl]-N^4-[(1R)-1-methylpropyl]pyrimidine-2,4-diamine] are within 1.5-fold of each other in Ki: 12.4 nM for the first, 16.9 nM for the second.

Going from `CCC(C)Nc1cc(N2CC(NC)C2)ncn1` (stereo not drawn) [Example 153, N-(sec-Butyl)-6-[3-(methylamino)azetidin-1-yl]pyrimidin-4-amine] to `CC[C@H](C)Nc1cc(N2CC(NC)C2)nc(N)n1` [Example 161, 6-[3-(Methylamino)azetidin-1-yl]-N^4-[(1S)-1-methylpropyl]pyrimidine-2,4-diamine], the Ki falls from 11.5 nM to 2.75 nM (4.2-fold). The second binds more tightly here.

Compared with `Nc1nc(NCC2CC2)cc(N2CCNCC2)n1` [Example 154, N^4-(Cyclopropylmethyl)-6-piperazin-1-ylpyrimidine-2,4-diamine], `CCCNc1cc(N2CCNCC2)nc(N)n1` [Example 163, 6-Piperazin-1-yl-N^4-propylpyrimidine-2,4-diamine] is 2.2-fold higher in Ki: 1.71 nM for the first, 3.78 nM for the second.

`CN[C@@H]1CCN(c2cc(NCc3ccc(F)cc3)nc(N)n2)C1` [Example 155, N^4-(4-Fluorobenzyl)-6-[(3R)-3-(methylamino)pyrrolidin-1-yl]pyrimidine-2,4-diamine] and `CNC1CN(c2cc(NCc3ccc(F)cc3F)nc(N)n2)C1` [Example 157, N^4-(2,4-Difluorobenzyl)-6-[3-(methylamino)azetidin-1-yl]pyrimidine-2,4-diamine] are within 1.5-fold of each other in Ki: 1.78 nM for the first, 2.49 nM for the second.

`CC(C)(C)CNc1cc(N2CCNCC2)nc(N)n1` [Example 156, N^4-(2,2-Dimethylpropyl)-6-piperazin-1-ylpyrimidine-2,4-diamine] and `CNC1CN(c2cc(NCC(C)(C)C)nc(N)n2)C1` [Example 159, N^4-(2,2-Dimethylpropyl)-6-[3-(methylamino)azetidin-1-yl]pyrimidine-2,4-diamine hydrochloride] are within 1.5-fold of each other in Ki: 2.44 nM for the first, 2.62 nM for the second.

`CCCC(C)Nc1cc(N2CC(NC)C2)nc(N)n1` (stereo not drawn) [Example 158, 6-[3-(Methylamino)azetidin-1-yl]-N^4-(1-methylbutyl)pyrimidine-2,4-diamine] and `CNC1CN(c2cc(N[C@H](C)C(C)C)nc(N)n2)C1` [Example 160, N^4-[(1R)-1,2-Dimethylpropyl]-6-[3-(methylamino)azetidin-1-yl]pyrimidine-2,4-diamine] are within 1.5-fold of each other in Ki: 2.59 nM for the first, 2.65 nM for the second.

First: CCNc1cc(N2CC(NC)C2)nc(N)n1 [Example 164, N^4-Ethyl-6-[3-(methylamino)azetidin-1-yl]pyrimidine-2,4-diamine]
Second: CNC1CN(c2cc(NC(C)(C)C)nc(N)n2)C1 [Example 168, N^4-(tert-Butyl)-6-[3-(methylamino)azetidin-1-yl]pyrimidine-2,4-diamine]
The Ki of the first is 1.7-fold lower: 3.82 nM for the first, 6.5 nM for the second.

`Nc1nc(NCC2CC2)cc(N2C[C@H]3CCCN[C@H]3C2)n1` [Example 165, N^4-(Cyclopropylmethyl)-6-[(4aR,7aR)-octahydro-6H-pyrrolo[3,4-b]pyridin-6-yl]pyrimidine-2,4-diamine] and `CC(C)(C)CNc1cc(N2C[C@@H]3CCCN[C@@H]3C2)nc(N)n1` [Example 166, N^4-(2,2-Dimethylpropyl)-6-[(4aS,7aS)-octahydro-6H-pyrrolo[3,4-b]pyridin-6-yl]pyrimidine-2,4-diamine] are within 1.5-fold of each other in Ki: 3.83 nM for the first, 3.99 nM for the second.
